We go through 28 compounds from US20240368122A1, “JAK2 INHIBITORS AND METHODS OF USE THEREOF” (RELAY THERAPEUTICS, INC., priority 2021, published 2024).

Test [1] relates to TF1 JAK2 V617F STAT3 reporter. Kind of test: Cellular TF1 STAT3 assay (luciferase reporter), JAK2 V617F. Type of test: cell-based. The conditions noted are these: read-out: Cell PD-TF1 JAK2 V617F STAT3 (IC50). In short, it runs like this:
(§1)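 TF1 V617F JAK2 reporter cells, 10k/well; 10-pt 1:3 dose response from 10 mM 1000× DMSO stock; 18-20 h, 37 °C, 5% CO2; ONE-glo, 10 min RT; luminescence. Triplicate plates, DMSO vehicle.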
For orientation: In a reporter assay the amount or activity of a reporter protein is the signal.

For test [2], the target named is T1, JAK2 JH2 WT (V536-D812) [W659A, W777A, F794H solubilizing mutations] (Homo sapiens, UniProt O60674, F794H/W659A/W777A).
T1 construct: **JAK2 JH2 WT (V536-D812) [W659A, W777A, F794H solubilizing mutations]; C-thrombin-avi-His6; thrombin cleavage site (C); His6 (C); purchased Biortus
T1 sequence (O60674 536-812 W659A/W777A/F794H): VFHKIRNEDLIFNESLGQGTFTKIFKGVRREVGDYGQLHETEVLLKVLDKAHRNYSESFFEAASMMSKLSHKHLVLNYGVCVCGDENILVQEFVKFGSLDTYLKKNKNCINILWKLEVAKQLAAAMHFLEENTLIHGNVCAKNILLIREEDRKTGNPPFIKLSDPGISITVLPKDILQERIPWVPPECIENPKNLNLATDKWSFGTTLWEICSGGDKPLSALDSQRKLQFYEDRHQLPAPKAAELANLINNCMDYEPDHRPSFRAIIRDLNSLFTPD
Kind of test: Surface Plasmon Resonance (SPR) binding assay, JAK2 JH2 domain. The essentials: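 Kinetics came from 1:1 fits of single-cycle runs at 20 °C: four 3-fold dilutions from 5 uM for JH1 or 500 nM for JH2, 60 s association, and 300 s or 1200 s dissociation respectively. Protein was freshly captured per compound in the presence of 10 uM stabilizer compound, with running buffer of pH 7.5 HEPES/NaCl/glycerol/DTT plus 2% DMSO.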

The test system of test [3] is TF1 JAK2 V617F STAT5 reporter. Kind of test: Cellular TF1 STAT5 assay (luciferase reporter), JAK2 V617F. Type of test: cell-based. The note with it: read-out: Cell PD TF1 V617F STAT5 (IC50). In short, it runs like this: as §1
Where [4] appears, read: Homo sapiens, TF-1, TF1 cells, JAK2 V617F.

SMILES strings stand for the structures. Like-named read-outs stand apart in the source and are kept apart here.

What is called IC50 is the concentration that inhibits the measured activity by half. Broadly, the Kd is the concentration at which binding is half-saturated. A lower Kd goes with tighter binding. Turning to `CNC(=O)c1nnc(NC(=O)C2CC2)cc1Nc1cccc(-c2cn([C@@H]3CN(Cc4cccc(C)n4)[C@H]3C)nn2)c1OC` (stereo in doubt) [Compound 238], the half-inhibitory concentration (IC50) in test [1] (setting [4]) and in test [3] (setting [4]) was 500 to 5000 nM each time. The compound further showed a Kd in test [2] of 0.01 to 10 nM.
On to `CNC(=O)c1nnc(NC(=O)C2CC2)cc1Nc1cccc(-c2cnn(C3CN(Cc4cc(OC)ccn4)C3)c2)c1OC` [Compound 88], for which the IC50 in test [1] (TF1 JAK2 V617F) and in test [3] (TF1 JAK2 V617F) was 500 to 5000 nM in each case. The Kd in test [2] (SPR, JAK2 JH2 domain) is 0.01 to 10 nM.
As for `CNC(=O)c1nnc(NC(=O)C2CC2)cc1Nc1ccc(C)c(-c2ccc(C(=O)N(C)Cc3ncc(COC)s3)nc2)c1OC` [Compound 317], the figures for the IC50 in test [1] (setting [4]) and in test [3] (setting [4]) were 500 to 5000 nM and 50 to 500 nM, respectively. For the same compound, in test [2], the Kd was in the range of 0.01 to 10 nM.
`CNC(=O)c1nnc(NC(=O)C2CC2)cc1Nc1cccc(-c2ccc(C(=O)N(C)Cc3cc(P(C)(C)=O)ccn3)nc2)c1OC` [Compound 380]: the IC50 in test [1] (setting [4]) and in test [3] (setting [4]) was 5000 to 100000 nM in each case. In test [2], this compound had a Kd of 0.01 to 10 nM.
`CNC(=O)c1nnc(NC(=O)C2CC2)cc1Nc1cccc(-c2cnn(C3CN(Cc4cccc(C5(C#N)CCC5)n4)C3)c2)c1OC` [Compound 290]: the IC50 in test [1] (setting [4]) and in test [3] (setting [4]) was 50 to 500 nM in each case. The compound further returned a Kd in test [2] of 0.01 to 10 nM.
In the case of `CCN(C)C(=O)c1cccc(CN2CC(n3cc(-c4cccc(Nc5cc(NC(=O)C6CC6)nnc5C(=O)NC)c4OC)cn3)C2)n1` [Compound 354], the IC50 in test [1] (setting [4]) lay within 50 to 500 nM; in test [3] (setting [4]), 10 to 50 nM. The same compound registered a Kd in test [2] of 0.01 to 10 nM.
Take `CNC(=O)c1nnc(NC(=O)C2CC2)cc1Nc1cccc(-c2cn(C3CN(C(C)C)C3)nc2C(C)(C)O)c1OC` [Compound 338]: the IC50 in test [1] (setting [4]) was 500 to 5000 nM; in test [3] (setting [4]), 5000 to 100000 nM. For the same compound, the Kd in test [2] was 50 to 500 nM.
Take `CNC(=O)c1nnc(NC(=O)C2CC2)cc1Nc1cccc(-c2cnc(C(=O)N(C)Cc3cn(C)nc3C(F)(F)F)nc2)c1OC` [Compound 64]: the IC50 in test [1] (TF1 JAK2 V617F) is 500 to 5000 nM; in test [3] (TF1 JAK2 V617F), 50 to 500 nM. In test [2] (SPR, JAK2 JH2 domain), this compound yielded a Kd of 0.01 to 10 nM.
Regarding `CNC(=O)c1nnc(NC(=O)C2CC2)cc1Nc1cccc(-c2ccc(C3CN(Cc4cn(C)nc4C#N)C3)nc2)c1OC` [Compound 293], the figures for the IC50 in test [1] (setting [4]) and in test [3] (setting [4]) were 500 to 5000 nM and 5000 to 100000 nM, respectively. Also, the Kd in test [2] was in the range of 50 to 500 nM.
In the case of `[2H]C([2H])([2H])NC(=O)c1nnc(NC(=O)C2CC2)cc1Nc1cccc(-c2cnc(C(=O)N(Cc3ccn(C)n3)C([2H])([2H])[2H])nc2)c1OC` [Compound 63], the IC50 in test [1] (TF1 JAK2 V617F) and in test [3] (TF1 JAK2 V617F) was 500 to 5000 nM each time. For the same compound, the Kd in test [2] (SPR, JAK2 JH2 domain) lay in the range of 0.01 to 10 nM.
For `CNC(=O)c1nnc(NC(=O)C2CC2)cc1Nc1cccc(-c2ccc(C(=O)N(C)Cc3ccccc3C(C)C)nc2)c1OC` [Compound 81], the IC50 in test [1] (TF1 JAK2 V617F) and in test [3] (TF1 JAK2 V617F) was 500 to 5000 nM each time. Further, in test [2] (SPR, JAK2 JH2 domain), the Kd fell in the range of 10 to 50 nM.
For `CNC(=O)c1nnc(NC(=O)C2CC2)cc1Nc1cccc(-c2cnn(C3CN(Cc4cccc(P(C)(C)=O)n4)C3)c2)c1OC` [Compound 378], the IC50 in test [1] (setting [4]) and in test [3] (setting [4]) was 500 to 5000 nM each time. In test [2], this compound returned a Kd of 0.01 to 10 nM.
As to `CNC(=O)c1nnc(NC(=O)C2CC2)cc1Nc1cccc(-c2ccc(C3CN(Cc4ccccn4)C3)c(OC)c2)c1OC` [Compound 359], the IC50 is 5000 to 100000 nM in test [1] (setting [4]) and 500 to 5000 nM in test [3] (setting [4]). This compound returned a Kd in test [2] of 50 to 500 nM.
As for `CNC(=O)c1nnc(NC(=O)C2CC2)cc1Nc1cccc(-c2ccc(C(=O)N(C)Cc3ncc(COC)s3)cc2)c1OC` [Compound 316], the IC50 in test [1] (setting [4]) and in test [3] (setting [4]) was 500 to 5000 nM throughout. Moreover, the Kd in test [2] is 0.01 to 10 nM.
In the case of `CNC(=O)c1nnc(NC(=O)C2CC2)cc1Nc1cccc(-c2ccc(C(=O)N(CCOC)Cc3cccn(C)c3=O)nc2)c1OC` [Compound 15], the IC50 in test [1] (TF1 JAK2 V617F) and in test [3] (TF1 JAK2 V617F) was 5000 to 100000 nM in each case. Also, the Kd in test [2] (SPR, JAK2 JH2 domain) is 0.01 to 10 nM.
Regarding `CNC(=O)c1nnc(NC(=O)C2CC2)cc1Nc1cccc(-c2ccc(C(=O)N(C)C[C@H]3CCS(=O)(=O)C3)nc2)c1OC` (single isomer, unassigned) [Compound 207], the IC50 in test [1] (setting [4]) and in test [3] (setting [4]) was 5000 to 100000 nM in each case. In test [2], the Kd was 0.01 to 10 nM.
Consider `CNC(=O)c1nnc(NC(=O)C2CC2)cc1Nc1cccc(-c2ccc(C3CN(Cc4ccc(Cl)cn4)C3)nc2)c1OC` [Compound 388], for which the values for the IC50 in test [1] (setting [4]) and in test [3] (setting [4]) were 5000 to 100000 nM and 500 to 5000 nM, respectively. The Kd in test [2] was 50 to 500 nM.
With `CNC(=O)c1nnc(NC(=O)C2CC2)cc1Nc1cccc(-c2cnn(C3CN(Cc4cc([N+](=O)[O-])ccn4)C3)c2)c1OC` [Compound 295], the IC50 in test [1] (setting [4]) and in test [3] (setting [4]) was 50 to 500 nM in each case. In test [2], the Kd lay within 0.01 to 10 nM.
With `CNC(=O)c1nnc(NC(=O)C2CC2)cc1Nc1cccc(-c2cnn(C3CN(Cc4cccc(C#CCN)n4)C3)c2)c1OC` [Compound 265], the IC50 in test [1] (setting [4]) and in test [3] (setting [4]) was 500 to 5000 nM each time. The Kd in test [2] lay in the range of 0.01 to 10 nM.
With `CNC(=O)c1nnc(NC(=O)C2CC2)cc1Nc1cccc(-c2ccc(C(=O)N(C)Cc3cn(C)nn3)nc2)c1OC` [Compound 100], the IC50 in test [1] (TF1 JAK2 V617F) and in test [3] (TF1 JAK2 V617F) was 500 to 5000 nM each time. Moreover, in test [2] (SPR, JAK2 JH2 domain), the Kd lay in the range of 0.01 to 10 nM.
Turning to `CNC(=O)c1nnc(NC(=O)C2CC2)cc1Nc1cccc(-c2cc(C3CN(Cc4cccc(C#N)n4)C3)n(C)n2)c1OC` [Compound 202], the IC50 in test [1] (setting [4]) and in test [3] (setting [4]) was 5000 to 100000 nM in each case. The Kd in test [2] was in the range of 50 to 500 nM.
Turning to `CNC(=O)c1nnc(NC(=O)C2CC2)cc1Nc1cccc(-c2ccc(C(=O)N(C)Cc3ccc(F)cc3)cc2)c1OC` [Compound 95], the IC50 in test [1] (TF1 JAK2 V617F) and in test [3] (TF1 JAK2 V617F) was 5000 to 100000 nM each time. The compound also yielded a Kd in test [2] (SPR, JAK2 JH2 domain) of 10 to 50 nM.
Regarding `CNC(=O)c1nnc(NC(=O)C2CC2)cc1Nc1cccc(-c2ccc(C(=O)N(C)C[C@H]3CCCC3(F)F)nc2)c1OC` (single isomer, unassigned) [Compound 226], the IC50 in test [1] (setting [4]) and in test [3] (setting [4]) was 5000 to 100000 nM in each case. The compound further gave a Kd in test [2] of 10 to 50 nM.
For `CNC(=O)c1nnc(NC(=O)C2CC2)cc1Nc1cccc(-c2cnn(C3CN(C(C#N)c4ccccn4)C3)c2)c1OC` (racemic) [Compound 315], the IC50 in test [1] (setting [4]) was 500 to 5000 nM; in test [3] (setting [4]), 5000 to 100000 nM. Further, the Kd in test [2] is 0.01 to 10 nM.
Regarding `CNC(=O)c1nnc(NC(=O)C2CC2)cc1Nc1cccc(-c2cnn(C3CN(Cc4cccc(C#CC(C)(C)O)n4)C3)c2)c1OC` [Compound 259], the half-inhibitory concentration (IC50) in test [1] (setting [4]) and in test [3] (setting [4]) was 50 to 500 nM throughout. Also, the Kd in test [2] is 0.01 to 10 nM.
`CNC(=O)c1nnc(NC(=O)C2CC2)cc1Nc1cccc(-c2cn([C@H]3CN(Cc4cccc(C#N)n4)[C@@H]3C)nn2)c1OC` (stereo in doubt) [Compound 234]: the IC50 in test [1] (setting [4]) and in test [3] (setting [4]) was 50 to 500 nM throughout. The compound further yielded a Kd in test [2] of 0.01 to 10 nM.
Regarding `CNC(=O)c1nnc(NC(=O)C2CC2)cc1Nc1cccc(-c2cnn(C3CN(Cc4cccc(C(F)(F)F)n4)C3)c2)c1OC` [Compound 200], the IC50 in test [1] (setting [4]) and in test [3] (setting [4]) was 50 to 500 nM in each case. In test [2], this compound showed a Kd of 0.01 to 10 nM.
As to `CNC(=O)c1nnc(NC(=O)C2CC2)cc1Nc1cccc(-c2cnn(C3CN(Cc4nccc(OC)n4)C3)c2)c1OC` [Compound 78], the IC50 in test [1] (TF1 JAK2 V617F) and in test [3] (TF1 JAK2 V617F) was 500 to 5000 nM throughout. Further, the Kd in test [2] (SPR, JAK2 JH2 domain) was in the range of 0.01 to 10 nM.
